Assay results as given in patent publication US6660768B2, “Parasiticidal compositions and methods of use” (Schering-Plough Animal Health Corporation, priority 2001, dated 2003).

Test: Example 3B: solubility of permethrin in PM (propylene glycol monomethyl ether), DM (diethylene glycol monomethyl ether) and PM or DPM (dipropylene glycol monomethyl ether)/d-limonene mixtures at low temperatures, seeded
Protocol: These solutions were poured into 100 mL tubes with screw top caps. These tubes were placed in the cold water bath and allowed to come to equilibrium at the temperature of the bath. […] The seeded preparations were then thoroughly shaken, replaced in the bath and allowed to remain in the bath for a 24 hour period. The preparations were then examined for crystallization, then again thoroughly agitated and replaced in the bath for an additional time period. Samples of the supernatant were removed after additional crystallization had occurred.
The solvent mixtures tested were: dipropylene glycol monomethyl ether/d-limonene and propylene glycol monomethyl ether/d-limonene.
These solvent mixtures were evaluated at ratios of 2:1, 1:1, 1:2, and then at 8:2 and 9:1 (the first number refers to one of the glycol ethers, the second number refers to d-limonene).

CC1(C)C(C=C(Cl)Cl)C1C(=O)OCc1cccc(Oc2ccccc2)c1 (stereo not drawn) [permethrin]
% Total Permethrin (65% permethrin in PM/d-limonene, 67% d-limonene of solvent mixture, 10° C.): 65.95% | % Total Permethrin (65% permethrin in PM/d-limonene, 100% d-limonene of solvent mixture, 0° C.): 60.27% | % Total Permethrin (65% permethrin in PM/d-limonene, 100% d-limonene of solvent mixture, 5° C.): 62.73% | % Total Permethrin (65% permethrin in PM/d-limonene, 100% d-limonene of solvent mixture, 10° C.): 65.88% | % Total Permethrin (70% permethrin in DPM/d-limonene, 0% d-limonene of solvent mixture, 0° C.): 64.24% | % Total Permethrin (70% permethrin in DPM/d-limonene, 0% d-limonene of solvent mixture, 5° C.): 65.56% | % Total Permethrin (70% permethrin in DPM/d-limonene, 0% d-limonene of solvent mixture, 10° C.): 66.58% | % Total Permethrin (70% permethrin in DPM/d-limonene, 10% d-limonene of solvent mixture, 10° C.): 66.95% | % Total Permethrin (70% permethrin in DPM/d-limonene, 20% d-limonene of solvent mixture, 10° C.): 67.71% | % Total Permethrin (70% permethrin in DPM/d-limonene, 33% d-limonene of solvent mixture, 5° C.): 69.64% | % Total Permethrin (70% permethrin in DPM/d-limonene, 33% d-limonene of solvent mixture, 10° C.): 67.38% | % Total Permethrin (70% permethrin in DPM/d-limonene, 50% d-limonene of solvent mixture, 0° C.): 65.66% | % Total Permethrin (70% permethrin in DPM/d-limonene, 50% d-limonene of solvent mixture, 5° C.): 68.48% | % Total Permethrin (70% permethrin in DPM/d-limonene, 50% d-limonene of solvent mixture, 10° C.): 66.70% | % Total Permethrin (70% permethrin in DPM/d-limonene, 67% d-limonene of solvent mixture, 0° C.): 66.05% | % Total Permethrin (70% permethrin in DPM/d-limonene, 67% d-limonene of solvent mixture, 5° C.): 69.38% | % Total Permethrin (70% permethrin in DPM/d-limonene, 67% d-limonene of solvent mixture, 10° C.): 67.98% | % Total Permethrin (70% permethrin in DPM/d-limonene, 100% d-limonene of solvent mixture, 0° C.): 64.61% | % Total Permethrin (70% permethrin in DPM/d-limonene, 100% d-limonene of solvent mixture, 5° C.): 66.05% | % Total Permethrin (70% permethrin in DPM/d-limonene, 100% d-limonene of solvent mixture, 10° C.): 69.30% | % Total Permethrin (70% permethrin in PM/d-limonene, 0% d-limonene of solvent mixture, 0° C.): 57.91% | % Total Permethrin (70% permethrin in PM/d-limonene, 0% d-limonene of solvent mixture, 5° C.): 64.79% | % Total Permethrin (70% permethrin in PM/d-limonene, 10% d-limonene of solvent mixture, 10° C.): 66.70% | % Total Permethrin (70% permethrin in PM/d-limonene, 20% d-limonene of solvent mixture, 10° C.): 66.92% | % Total Permethrin (70% permethrin in PM/d-limonene, 33% d-limonene of solvent mixture, 0° C.): 65.20% | % Total Permethrin (70% permethrin in PM/d-limonene, 33% d-limonene of solvent mixture, 5° C.): 67.36% | % Total Permethrin (70% permethrin in PM/d-limonene, 33% d-limonene of solvent mixture, 10° C.): 67.80% | % Total Permethrin (70% permethrin in PM/d-limonene, 50% d-limonene of solvent mixture, 0° C.): 65.36% | % Total Permethrin (70% permethrin in PM/d-limonene, 50% d-limonene of solvent mixture, 5° C.): 69.65% | % Total Permethrin (70% permethrin in PM/d-limonene, 50% d-limonene of solvent mixture, 10° C.): 68.40% | % Total Permethrin (70% permethrin in PM/d-limonene, 67% d-limonene of solvent mixture, 0° C.): 65.94% | % Total Permethrin (70% permethrin in PM/d-limonene, 67% d-limonene of solvent mixture, 5° C.): 68.33% | % Total Permethrin (70% permethrin in PM/d-limonene, 100% d-limonene of solvent mixture, 0° C.): 64.61% | % Total Permethrin (70% permethrin in PM/d-limonene, 100% d-limonene of solvent mixture, 5° C.): 66.05% | % permethrin remaining in solution (DM, 5° C., Original % permethrin 50): 46.00% | % permethrin remaining in solution (DM, 5° C., Original % permethrin 55): 51.74% | % permethrin remaining in solution (DM, 5° C., Original % permethrin 60): 55.09% | % permethrin remaining in solution (DM, 5° C., Original % permethrin 65): 60.22% | % permethrin remaining in solution (DM, 10° C., Original % permethrin 50): 46.80% | % permethrin remaining in solution (DM, 10° C., Original % permethrin 55): 50.72% | % permethrin remaining in solution (DM, 10° C., Original % permethrin 60): 56.17% | % permethrin remaining in solution (DM, 20° C., Original % permethrin 50): 50.55% | % permethrin remaining in solution (DM, 20° C., Original % permethrin 55): 55.14% | % permethrin remaining in solution (DM, 20° C., Original % permethrin 60): 60.05% | % permethrin remaining in solution (DM, 20° C., Original % permethrin 65): 64.85% | % permethrin remaining in solution (DM, 20° C., Original % permethrin 75): 74.20% | % permethrin remaining in solution (DM, 25° C., Original % permethrin 50): 49.43% | % permethrin remaining in solution (DM, 25° C., Original % permethrin 55): 53.98% | % permethrin remaining in solution (DM, 25° C., Original % permethrin 60): 61.10% | % permethrin remaining in solution (DM, 25° C., Original % permethrin 65): 64.25% | % permethrin remaining in solution (DM, 25° C., Original % permethrin 75): 74.53% | % permethrin remaining in solution (PM, 5° C., Original % permethrin 50): 46.61% | % permethrin remaining in solution (PM, 5° C., Original % permethrin 55): 52.71% | % permethrin remaining in solution (PM, 5° C., Original % permethrin 60): 56.69% | % permethrin remaining in solution (PM, 5° C., Original % permethrin 65): 61.50% | % permethrin remaining in solution (PM, 5° C., Original % permethrin 75): 70.89% | % permethrin remaining in solution (PM, 10° C., Original % permethrin 60): 59.08% | % permethrin remaining in solution (PM, 10° C., Original % permethrin 65): 61.63% | % permethrin remaining in solution (PM, 10° C., Original % permethrin 75): 72.22% | % permethrin remaining in solution (PM, 20° C., Original % permethrin 50): 50.60% | % permethrin remaining in solution (PM, 20° C., Original % permethrin 55): 55.54% | % permethrin remaining in solution (PM, 20° C., Original % permethrin 60): 61.27% | % permethrin remaining in solution (PM, 20° C., Original % permethrin 65): 66.25% | % permethrin remaining in solution (PM, 20° C., Original % permethrin 75): 76.84% | % permethrin remaining in solution (PM, 25° C., Original % permethrin 50): 51.28% | % permethrin remaining in solution (PM, 25° C., Original % permethrin 55): 56.19% | % permethrin remaining in solution (PM, 25° C., Original % permethrin 60): 60.99% | % permethrin remaining in solution (PM, 25° C., Original % permethrin 65): 66.71% | % permethrin remaining in solution (PM, 25° C., Original % permethrin 75): 75.82%
